Residue numbers refer to the chain shown, from its start. Several values for one entry are separate records, joined by “and”; a condition that tells them apart may be missing. Equal entries are not always repeated. Where two headings read alike, the source gives them in different places.
How the values were obtained:
[1] = molecular target: T1, human CBS p.P49L (ferrous heme) (Homo sapiens, UniProt P35520, P49L); assay: Stopped-flow kinetics of CO binding to ferrous CBS p.P49L; settings: for CO binding fitted rate constant k2 / CO binding fitted rate constant k1 / CO binding fitted rate constant k3: 1 mM CO, 25°C; for CO binding fitted rate constant k2: 30% reaction amplitude
T1 construct: Recombinant full-length human CBS p.P49L was expressed and purified; made in house; host or cells: E. coli
T1 sequence (P35520 1-551 P49L): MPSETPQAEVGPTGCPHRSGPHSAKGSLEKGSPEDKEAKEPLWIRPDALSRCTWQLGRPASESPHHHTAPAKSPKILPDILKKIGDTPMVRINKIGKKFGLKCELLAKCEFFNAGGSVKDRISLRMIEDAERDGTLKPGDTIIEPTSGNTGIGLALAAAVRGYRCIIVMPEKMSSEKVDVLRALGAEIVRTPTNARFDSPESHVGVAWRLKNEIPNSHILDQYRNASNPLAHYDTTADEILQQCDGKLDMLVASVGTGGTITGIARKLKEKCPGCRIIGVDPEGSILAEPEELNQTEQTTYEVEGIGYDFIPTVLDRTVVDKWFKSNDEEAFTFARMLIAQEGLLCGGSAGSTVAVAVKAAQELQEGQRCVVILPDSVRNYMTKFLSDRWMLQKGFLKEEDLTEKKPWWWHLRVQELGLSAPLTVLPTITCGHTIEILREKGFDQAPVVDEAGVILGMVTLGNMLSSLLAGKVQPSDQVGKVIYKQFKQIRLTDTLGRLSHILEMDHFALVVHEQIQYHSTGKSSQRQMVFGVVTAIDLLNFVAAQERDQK
Procedure: (§1) Time-resolved absorption spectroscopy experiments were carried out in a thermostated stopped-flow instrument (DX.17MV, Applied Photophysics), equipped with a photodiode-array (light path, 1 cm). To avoid light-induced artifacts, the intensity of the white-light incident beam was decreased and a filter cutting UV light at λ < 360 nm was employed. Absorption spectra were recorded with an acquisition time of 10 ms per spectrum according to a logarithmic time scale. All reactions were carried out at 25°C in buffer A. CBS p.P49L was thoroughly flushed with nitrogen, after which glucose oxidase (4 units·ml^−1), catalase (13 μg·ml^−1), superoxide dismutase (12 units·ml^−1), and glucose (3 mM) were added to scavenge oxygen, hydrogen peroxide, and superoxide anion. The protein was then placed on ice, protected from light to prevent possible damaging photoreactions. When indicated, CBS p.P49L was incubated with AdoMet for ≥10 minutes, prior to reduction with 90 µM sodium dithionite. CO association kinetics were studied by mixing in the stopped-flow apparatus reduced CBS p.P49L, in the absence or presence of AdoMet, with CO solutions and the spectra recorded over time. CO dissociation kinetics were evaluated by mixing the Fe(II)-CO adduct of CBS p.P49L with NO• stock solutions, prepared by equilibrating degassed ultra-pure water with NO• gas at 1 atm, further kept on ice protected from light.
(§2) CO affinity titrations and CO binding and dissociation kinetic data were analyzed with the software MATLAB (Mathworks). Global fit analysis of spectral data was performed by singular value decomposition analysis combined with curve fitting.

recombinant human WT CBS [2] = molecular target: T2, recombinant human WT CBS (Homo sapiens, UniProt P35520); settings: isolated proteins and bacterial or human cell lysates; cited from earlier work
T2 construct: employed in this study, corresponding to full-length CBS WT and p.P49L purified in the absence; made in house
T2 sequence (P35520 1-551): T1 sequence (P35520 1-551 P49L) with L49P

recombinant human WT CBS [3] = molecular target: T2, recombinant human WT CBS; assay: H2S synthesis assay (amperometric and lead acetate methods), WT CBS; assay type: biochemical; settings: for H2S-synthesizing activity stimulation by AdoMet: 500 μM AdoMet, 37°C
Procedure: (§3) H2S production by recombinant human CBS variants was measured at 37°C, either by amperometry using a H2S-selective electrode (World Precision Instruments) or by the lead acetate method. Purified CBS (0.5–1 μM) was incubated for 10 minutes with 50 μM PLP, 260 U/ml catalase, and 0.4–2.0 mM homocysteine in the absence or presence of 0.5 mM AdoMet, after which 10 mM cysteine was added to trigger the reaction. Amperometric assays were performed using an ISO-H2S-2 hydrogen sulfide sensor coupled to an Apollo 4000 Free Radical Analyzer (World Precision Instruments). After recording H2S production for 3 minutes, the electrode was internally calibrated by adding 4 μM NaHS (corresponding to 2 μM H2S at pH 7.0). Finally, 50 μM o-acetylserine and 200 nM Entamoeba histolytica o-acetylserine sulfhydrylase were added to the reaction mixture to remove H2S from solution and bring the signal back to baseline. Activity assays by the lead acetate method were carried out in a thermostated cuvette under stirring, according to [5]. Lead acetate (400 μM) was added to the reaction mix prior to cysteine addition and H2S production monitored at 390 nm in an Agilent Cary-60 spectrophotometer.

[4] = molecular target: T3, recombinant human CBS p.P49L (Homo sapiens, UniProt P35520, P49L); assay: H2S synthesis assay (amperometric and lead acetate methods), CBS p.P49L; assay type: biochemical; settings: 37°C; for H2S-synthesizing activity stimulation by AdoMet: 500 μM AdoMet
T3 construct: Recombinant full-length human CBS p.P49L was expressed and purified; made in house; host or cells: E. coli
T3 sequence (P35520 1-551 P49L): T1 sequence (P35520 1-551 P49L)
Procedure: as §3

[5] = molecular target: T4, human WT CBS (ferrous heme) (Homo sapiens, UniProt P35520); assay: Stopped-flow kinetics of CO binding to ferrous WT CBS; settings: WT enzyme
T4 construct: employed in this study, corresponding to full-length CBS WT and p.P49L purified in the absence; made in house
T4 sequence (P35520 1-551): T1 sequence (P35520 1-551 P49L) with L49P

[6] = molecular target: T5, human CBS p.P49L Fe(II)-CO adduct (Homo sapiens, UniProt P35520, P49L); assay: Stopped-flow kinetics of CO dissociation (displacement by NO•) from CBS p.P49L; assay type: binding; settings: for CO displacement by NO• rate constant k2: 25% reaction amplitude
T5 construct: Recombinant full-length human CBS p.P49L was expressed and purified; made in house; host or cells: E. coli
T5 sequence (P35520 1-551 P49L): T1 sequence (P35520 1-551 P49L)
Procedure: as §1, §2

[7] = molecular target: T6, human WT CBS Fe(II)-CO adduct (Homo sapiens, UniProt P35520); assay: Stopped-flow kinetics of CO dissociation (displacement by NO•) from WT CBS; assay type: binding; settings: WT enzyme; NO• 900 µM after mixing; 75% relative amplitude; data not shown
T6 construct: employed in this study, corresponding to full-length CBS WT and p.P49L purified in the absence; made in house
T6 sequence (P35520 1-551): T1 sequence (P35520 1-551 P49L) with L49P

[8] = molecular target: T1, human CBS p.P49L (ferrous heme); assay: Anaerobic CO titrations of reduced CBS p.P49L (UV-visible absorption); assay type: binding; settings: 20°C
Procedure: UV-visible absorption spectra of oxidized and reduced CBS p.P49L and WT were recorded in an Agilent Cary-60 spectrophotometer. Anaerobic titrations of reduced CBS p.P49L with CO were performed at 20°C in an Agilent Cary-60 or a Shimadzu UVPC-1800 spectrophotometer. Gas exchange was prevented either by filling the quartz cuvette and sealing it with a rubber-cap or by adding mineral oil on top of the aqueous medium. Anaerobic conditions were ensured by nitrogen flushing and addition of glucose oxidase (4 units·ml^−1), catalase (13 μg·ml^−1), superoxide dismutase (12 units·ml^−1), and glucose (3 mM) to scavenge contaminant oxygen, hydrogen peroxide, and superoxide anion. CBS p.P49L and WT (1.4–1.6 μM in heme) were reduced with 90 μM sodium dithionite, diluted from a 45 mM stock solution (quantitated using ε314 nm = 8,043 M^−1·cm^−1 [50]). CO stock solutions were prepared by equilibrating thoroughly degassed buffer A with the pure gas at 1 atm, yielding 1 mM CO at 20°C. After each CO addition with gas-tight Hamilton syringes, the spectral changes were visually inspected in real time and a new addition was immediately made when no more changes were observed.
According to [16, 19, 20, 51], two apparent Kd (Kd1 and Kd2) were used to satisfactorily fit the CO affinity data. The Kd1 and Kd2 values were obtained by fitting the data to (1), where PL is the concentration of CO-bound CBS p.P49L, PT and LT are, respectively, the total CBS p.P49L and CO concentrations, and α1 and α2 are, respectively, the protein fractions binding CO at higher (Kd1) and lower (Kd2) affinity. (1) PL=α1PT+LT+Kd1−PT+LT+Kd1^2−4PTLT+α2PT+LT+Kd2−PT+LT+Kd2^2−4PTLT/2.
as §2

[9] = AdoMet-bound CBS p.P49L, 35% reaction amplitude

C[S+](CC[C@H](N)C(=O)[O-])C[C@H]1O[C@@H](n2cnc3c(N)ncnc32)[C@H](O)[C@@H]1O (stereo partly drawn) [AdoMet, S-Adenosyl-L-methionine]
fold increase in the CO association rate in the presence of AdoMet ([1]; p.P49L variant): ~ 4.5 fold
AdoMet activation factor of CBS enzymatic activity, as usually reported (recombinant human WT CBS [2]): 2–5 fold
AdoMet activation factor observed for the WT enzyme (recombinant human WT CBS [3]; WT enzyme, overall): ≤ 2 fold
H2S-synthesizing activity stimulation by AdoMet (recombinant human WT CBS [3]; WT purified in the absence of PLP (PLP-untreated)): 1.5 fold
H2S-synthesizing activity stimulation by AdoMet (recombinant human WT CBS [3]; WT purified in the presence of 20 μM PLP (PLP-treated)): 1.9 fold
H2S-synthesizing activity stimulation by AdoMet ([4]; p.P49L purified in the absence of PLP (PLP-untreated)): 1.4 fold
H2S-synthesizing activity stimulation by AdoMet ([4]; p.P49L purified in the presence of 20 μM PLP (PLP-treated)): 1.1 fold
fold increase in the CO association rate in the presence of AdoMet [5]: ~ 2 fold

[C-]#[O+] [CO, Carbon monoxide]
CO binding fitted rate constant k2 ([1]; AdoMet-bound CBS p.P49L): 0.26 s⁻¹
CO binding fitted rate constant k1 [1, 9]: 2.55 s⁻¹
CO binding fitted rate constant k3 [1, 9]: 0.022 s⁻¹
CO binding fitted rate constant k1 ([1]; AdoMet-free CBS p.P49L, 25% reaction amplitude): 0.48 s⁻¹
CO binding fitted rate constant k2 ([1]; AdoMet-free CBS p.P49L): 0.05 s⁻¹
CO binding fitted rate constant k3 ([1]; AdoMet-free CBS p.P49L, 45% reaction amplitude): 0.006 s⁻¹
CO displacement by NO• rate constant k2 ([6]; AdoMet-bound CBS p.P49L (500 μM before mixing), 900 μM NO•, Figure 5(b) fit): 0.038 s⁻¹
CO displacement by NO• rate constant k1 ([6]; AdoMet-bound CBS p.P49L (500 μM before mixing), 900 μM NO•, 75% reaction amplitude, Figure 5(b) fit): 1.96 s⁻¹
CO displacement by NO• rate constant k2 ([6]; AdoMet-free CBS p.P49L, 900 μM NO•, Figure 5(b) fit): 0.035 s⁻¹
CO displacement by NO• rate constant k1 ([6]; AdoMet-free CBS p.P49L, 900 μM NO•, 75% reaction amplitude, Figure 5(b) fit): 1.93 s⁻¹
CO displacement by NO• rate constant k1 ([6]; CBS p.P49L, NO• 900 µM after mixing, 75% relative amplitude, no effect of AdoMet): 2.0 ± 0.1 s⁻¹
CO displacement by NO• rate constant k1 [7]: 2.0 ± 0.1 s⁻¹
Kd ([8]; AdoMet-bound p.P49L CBS (500 μM AdoMet), 30% relative amplitude, read-out: KdCO,2): 1500 nM and 2100 nM
Kd ([8]; AdoMet-bound p.P49L CBS (500 μM AdoMet), 70% relative amplitude, upper limit, read-out: KdCO,1): ≤ 30 nM
Kd ([8]; AdoMet-free p.P49L CBS, higher-affinity fraction, 60% relative amplitude, read-out: KdCO,1): 60 nM and 50 nM
Kd ([8]; AdoMet-free p.P49L CBS, lower-affinity fraction, 40% relative amplitude, read-out: KdCO,2): 21000 nM and 22000 nM

Cc1ncc(COP(=O)(O)O)c(C=O)c1O [PLP, Pyridoxal 5′-phosphate]
basal H2S-synthesizing activity of p.P49L after PLP supplementation along the purification ([4]; p.P49L purified in the presence of 20 μM PLP (PLP-treated), compared with WT): basal activity similar to the WT enzyme
